Consider eight molecules from ChEMBL document CHEMBL5252600, “Anti-Aβ42 Aggregative Polyketides from the Antarctic Psychrophilic Fungus Pseudogymnoascus sp. OUCMDZ-3578” (J Nat Prod, 2023).

Assay [1] is described as follows: Metal chelating activity assessed as compound-Zn2+ complex formation incubated for 1 hr by UV-vis spectrophotometric analysis.
A short description of assay [2]: Metal chelating activity assessed as compound-Cu2+ complex formation incubated for 1 hr by UV-vis spectrophotometric analysis.
In assay [3] the target is T1, Amyloid-beta precursor protein (Homo sapiens, UniProt P05067). The experiment in a line: Inhibition of Amyloid beta (1 to 42) (unknown origin) aggregation at 100 uM incubated for 24 hrs by ThioflavinT-dye based fluorescence analysis.
Assay [4] can be described thus: Metal chelating activity assessed as compound-Fe3+ complex formation incubated for 1 hr by UV-vis spectrophotometric analysis.
In assay [5] the target is T1, Amyloid-beta precursor protein. The experiment in a line: Inhibition of Amyloid beta (1 to 42) (unknown origin) aggregation incubated for 24 hrs by ThioflavinT-dye based fluorescence analysis.
The target is the same in assay [6]. Put plainly: Disaggregation of Fe3+ induced Amyloid beta (1 to 42) (unknown origin) aggregation at 100 uM incubated for 24 hrs by ThioflavinT-dye based fluorescence analysis.

Calls of active or inactive are those of the source. The rule behind the calls is not given here.

T1 sequence (P05067 whole entry): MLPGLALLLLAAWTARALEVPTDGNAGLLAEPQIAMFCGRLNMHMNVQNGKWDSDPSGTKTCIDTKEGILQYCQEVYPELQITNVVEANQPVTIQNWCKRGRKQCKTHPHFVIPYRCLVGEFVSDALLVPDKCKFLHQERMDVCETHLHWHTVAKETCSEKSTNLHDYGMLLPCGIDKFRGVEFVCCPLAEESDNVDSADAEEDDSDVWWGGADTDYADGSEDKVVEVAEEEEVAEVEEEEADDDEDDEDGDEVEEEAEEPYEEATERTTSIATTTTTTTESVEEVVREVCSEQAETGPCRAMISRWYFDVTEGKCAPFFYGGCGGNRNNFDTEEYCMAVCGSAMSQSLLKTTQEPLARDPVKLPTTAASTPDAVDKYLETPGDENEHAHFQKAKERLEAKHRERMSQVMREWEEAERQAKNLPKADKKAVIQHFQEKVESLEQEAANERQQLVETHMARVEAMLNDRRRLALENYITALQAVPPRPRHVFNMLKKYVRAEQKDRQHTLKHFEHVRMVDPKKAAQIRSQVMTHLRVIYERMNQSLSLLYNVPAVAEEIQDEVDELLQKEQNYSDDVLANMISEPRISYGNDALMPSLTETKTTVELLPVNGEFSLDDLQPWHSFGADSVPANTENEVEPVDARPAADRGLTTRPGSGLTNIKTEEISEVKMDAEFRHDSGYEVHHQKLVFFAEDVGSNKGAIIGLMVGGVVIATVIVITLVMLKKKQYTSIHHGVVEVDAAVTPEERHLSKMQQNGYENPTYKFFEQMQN

Take `COC(=O)c1c(O)cc(C)c(Sc2c(O)cc(OC)c(Oc3c(O)cc(C)cc3O)c2O)c1C(=O)c1c(O)cc(C)cc1O`: the result in assay [1], in assay [2], in assay [4] and in assay [6] was Active. In assay [3], this molecule returned an inhibition of 85.7%. This molecule also registered an IC50 in assay [5] of 0.1 µM.

In turn, `COC(=O)c1cc(O[C@@H]2O[C@H](COC(=O)CCC(=O)O)[C@@H](O)[C@H](O)[C@H]2O)cc(OC)c1C(=O)c1c(O)cc(C)cc1O` yielded an inhibition in assay [3] of 64.1%. In assay [5], this molecule showed an IC50 of 3.01 µM.

`COC(=O)c1cc(O[C@@H]2O[C@H](CO)[C@@H](O)[C@H](O)[C@H]2O)cc(OC)c1C(=O)c1c(O)cc(C)cc1O` yielded an inhibition in assay [3] of 85.2%. In addition, in assay [5], 4.73 µM corresponded to half-maximal inhibition (IC50).

Consider `COc1cc(O)cc(C(=O)O)c1C(=O)c1c(O)cc(CO)cc1O`, for which the outcome in assay [1], in assay [2], in assay [4] and in assay [6] was Active. Besides, in assay [3], the inhibition was found to be 73.2%. Moreover, in assay [5], the IC50 is 1.07 µM.

Turning to `COC(=O)c1cc(O)cc(OC)c1C(=O)c1c(O)cc(CO[C@H]2O[C@H](CO)[C@@H](O)[C@H](O)[C@H]2O)cc1O`, the result in assay [1], in assay [2], in assay [4] and in assay [6] was Active. Further, the inhibition in assay [3] worked out at 84.5%. The molecule further gave a 50% inhibitory concentration (IC50) in assay [5] of 1.03 µM.

As for `COC(=O)c1c(O)cc(C)cc1C(=O)c1cc(O)cc2oc3cc4c(c(O)c3c12)C(=O)c1c(O)cc(C)cc1C4=O`, in assay [3], the inhibition turned out to be 85.5%. In assay [5], this molecule registered an IC50 of 1.56 µM.

Regarding `O=C(O[C@@H]1Cc2c(O)cc(O)cc2O[C@@H]1c1cc(O)c(O)c(O)c1)c1cc(O)c(O)c(O)c1` [EPIGALOCATECHIN GALLATE], the midpoint of inhibition in assay [5], the IC50, lay at 0.14 µM.

`Cc1cc(O)c(C(=O)c2c(O)cc3c(c2O)C(=O)c2c(O)cc(C)cc2C3=O)c(C(=O)c2cc(O)c(O)cc2O)c1`: the result in assay [1], in assay [2], in assay [4] and in assay [6] was Active. This molecule also had an inhibition in assay [3] of 86.3%. Further, the half-inhibitory concentration (IC50) in assay [5] worked out at 0.18 µM.

Usually inhibition stands for the relative decrease from the control value, in per cent. High values mean a strong effect, low ones a weak effect. One may read the IC50 as the concentration that gives 50% inhibition. The low end stands for higher potency, the high end for lower potency.
